Data reported in patent publication US11535643B2, “Macrolides with modified desosamine sugars and uses thereof” (President and Fellows of Harvard College, priority 2015, dated 2022).
≈ marks a conversion by molar mass, not a printed value. Where two headings read alike, the source gives them in different places.

Tests used:
Assay type in all cases: cell-based
[1] = tested on: S. aureus; experiment: Broth dilution MIC determination (CLSI) against S. aureus strains
How it was run: (§1)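 Strains, including multidrug-resistant and macrolide-resistant ones, were exposed to macrolides in broth dilution per CLSI standards, and the lowest inhibiting concentration was recorded as MIC. Azithromycin and solithromycin were run alongside.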

[2] = tested on: E. coli; experiment: Broth dilution MIC determination (CLSI) against E. coli strains
How it was run: as §1

[3] = tested on: E. faecalis; experiment: Broth dilution MIC determination (CLSI) against E. faecalis strains
How it was run: as §1

[4] = tested on: P. aeruginosa; experiment: Broth dilution MIC determination (CLSI) against P. aeruginosa strains
How it was run: as §1

[5] = tested on: S. pneumoniae; experiment: Broth dilution MIC determination (CLSI) against S. pneumoniae strains
How it was run: as §1

[6] = tested on: H. influenzae; experiment: Broth dilution MIC determination (CLSI) against H. influenzae strains; settings: Haemophilus influenzae
From the text: Minimum inhibitory concentrations (MICs) for macrolides described herein have been determined for unique strains of S. aureus, S. pneumoniae, S. pyogenes, E. faecalis, E. coli, A. baumannii, K. pneumoniae, P. aeruginosa, and H. influenzae, including several multidrug-resistant strains, with a special focus on macrolide resistant mechanisms. Azithromycin and solithromycin were included as control compounds. CLSI standard procedures for broth dilution MIC determination were used. Data for exemplary compounds described herein is shown in Tables M1-M7 and in Tables N1-N4.

[7] = tested on: A. baumannii; experiment: Broth dilution MIC determination (CLSI) against A. baumannii strains
How it was run: as §1

[8] = tested on: S. pyogenes; experiment: Broth dilution MIC determination (CLSI) against S. pyogenes strains
How it was run: as §1

[9] = tested on: K. pneumoniae; experiment: Broth dilution MIC determination (CLSI) against K. pneumoniae strains
How it was run: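 Azithromycin and solithromycin served as controls; MICs were obtained by standard CLSI broth dilution on a strain panel including multidrug-resistant and macrolide-resistant isolates.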

SMILES: CC[C@H]1OC(=O)[C@H](C)C(=O)[C@H](C)[C@@H](O[C@@H]2OC(CNC(=N)N)CC(N(C)C)C2O)[C@](C)(OC)C[C@@H](C)CN[C@H](C)[C@H]2N(CCCCn3cc(-c4cccc(N)c4)nn3)C(=O)O[C@]12C (some centres unmarked) [FSM-21843]
- MIC ([1]; Staphylococcus aureus, ATCC29213, ATCC29213, read-out: MIC S. aureus ATCC29213): > 32 µg/mL
- MIC ([1]; Staphylococcus aureus, MRSA / USA100, MRSA: USA100, read-out: MIC S. aureus MRSA: USA100): > 32 µg/mL
- MIC ([1]; Staphylococcus aureus, MRSA / USA300, MRSA: USA300, read-out: MIC S. aureus MRSA: USA300): > 32 µg/mL
- MIC ([1]; Staphylococcus aureus, USA600, USA600, GISA, read-out: MIC S. aureus USA600, GISA): > 32 µg/mL
- MIC ([1]; Staphylococcus aureus, read-out: MIC S. aureus erm A genotype): > 32 µg/mL
- MIC ([2]; Escherichia coli, ATCC25922, ATCC25922, read-out: MIC E. coli ATCC25922): > 32 µg/mL
- MIC ([2]; Escherichia coli, read-out: MIC E. coli NDM-1, NDM-1): > 32 µg/mL
- MIC ([3]; Enterococcus faecalis, ATCC29212, ATCC29212, read-out: MIC E. faecalis ATCC29212): > 32 µg/mL
- MIC ([3]; Enterococcus faecalis, Vancomycin-resistant, read-out: MIC E. faecalis Vancomycin-resistant): > 32 µg/mL
- MIC ([4]; Pseudomonas aeruginosa, ATCC27853, read-out: MIC P. aeruginosa ATCC27853): > 32 µg/mL
- MIC ([5]; Streptococcus pneumoniae, ATCC49619, ATCC49619, read-out: MIC S. pneumoniae ATCC49619): 0.5 µg/mL (≈ 0.565 µM)
- MIC ([5]; Streptococcus pneumoniae, erm B + mef A genotype, read-out: MIC S. pneumoniae erm B + mef A genotype): 32 µg/mL
- MIC ([5]; Streptococcus pneumoniae, erm B + tet(M, O) genotype, read-out: MIC S. pneumoniae erm B + tet(M, O) genotype): 0.25 µg/mL
- MIC ([5]; Streptococcus pneumoniae, read-out: MIC S. pneumoniae mef A genotype, mef A genotype): 8 µg/mL (≈ 9.04 µM)
- MIC ([5]; Streptococcus pneumoniae, read-out: MIC S. pneumoniae mef A genotype, mef A genotype, first of two such columns (c3)): 4 µg/mL (≈ 4.52 µM)
- MIC ([6]; ATCC49247, ATCC49247, read-out: MIC H. influenzae ATCC49247): 32 µg/mL (≈ 36.2 µM)
- MIC ([6]; erythro > 4, azithro 1, read-out: MIC H. influenzae erythro > 4, azithro 1): 32 µg/mL (≈ 36.2 µM)
- MIC ([7]; Acinetobacter baumannii, ATCC19606, ATCC19606, read-out: MIC A. baumannii ATCC19606): > 32 µg/mL
- MIC ([7]; Acinetobacter baumannii, imipenem-resistant, read-out: MIC A. baumannii imipenem-resistant): > 32 µg/mL
- MIC ([8]; Streptococcus pyogenes, ATCC19615, ATCC19615, read-out: MIC S. pyogenes ATCC19615): 2 µg/mL (≈ 2.26 µM)
- MIC ([8]; Streptococcus pyogenes, macrolide-resistant, read-out: MIC S. pyogenes macrolide-resistant): 8 µg/mL (≈ 9.04 µM)
- MIC ([9]; Klebsiella pneumoniae, ATCC10031, ATCC10031, read-out: MIC K. pneumoniae ATCC10031): 32 µg/mL (≈ 36.2 µM)
- MIC ([9]; Klebsiella pneumoniae, KPC-2, read-out: MIC K. pneumoniae KPC-2): > 32 µg/mL

SMILES: CCC1OC(=O)C(C)C(=O)C(C)C(OC2OC(CNCc3ccc(F)cc3)CC(N(C)C)C2O)C(C)(OC)CC(C)CNC(C)C2N(CCCCn3cc(-c4cccc(N)c4)nn3)C(=O)OC12C (centres unmarked) [FSM-120391]
- MIC S. aureus ATCC29213 ([1]; ATCC29213, Strain No. MP-12): 4 µg/mL (≈ 4.21 µM)
- MIC S. aureus ATCCBAA-977 ([1]; ATCCBAA-977, Strain No. MP-17): 4 µg/mL (≈ 4.21 µM)
- MIC S. aureus (MRSA) GISA USA600 ([1]; GISA USA600, Strain No. MP-619 UNT-120): >64 µg/mL
- MIC S. aureus (MRSA) ST-228 cErm ([1]; ST-228 cErm, Strain No. MP-513): >64 µg/mL
- MIC S. aureus (MRSA) USA100 ([1]; USA100, Strain No. MP-618 UNT-096): >64 µg/mL
- MIC S. aureus (MRSA) USA300 ([1]; USA300, Strain No. MP-549): 4 µg/mL (≈ 4.21 µM)
- MIC S. aureus (MRSA) ermA phenotype ([1]; ermA phenotype, Strain No. MP-620 UNT-146): >64 µg/mL
- MIC E. coli ATCC25922 ([2]; ATCC25922, Strain No. MP-4): 4 µg/mL (≈ 4.21 µM)
- MIC E. coli ATCC25922:tolC ([2]; ATCC25922:tolC, Strain No. MP-9): 0.25 µg/mL (≈ 0.263 µM)
- MIC E. coli clinical ([2]; clinical, Strain No. MP541): 8 µg/mL (≈ 8.41 µM)
- MIC E. coli clinical-cErm ([2]; clinical-cErm, Strain No. MP532): >64 µg/mL
- MIC E. faecalis ATCC29212 ([3]; ATCC29212, Strain No. MP-24): 1 µg/mL (≈ 1.05 µM)
- MIC E. faecalis van resistant ([3]; van resistant, Strain No. UNT-039): >64 µg/mL
- MIC P. aeruginosa ATCC27853 ([4]; ATCC27853, Strain No. MP-3): 64 µg/mL (≈ 67.3 µM)
- MIC P. aeruginosa PAO1 ([4]; PAO1, Strain No. MP-7): >64 µg/mL
- MIC P. aeruginosa PAO1:mex ([4]; PAO1:mex, Strain No. MP-8): 16 µg/mL (≈ 16.8 µM)
- MIC S. pneumoniae ATCC49619 ([5]; ATCC49619, Strain No. MP-21): <0.03 µg/mL
- MIC S. pneumoniae mefA ([5]; Strain No. MP-626 UNT-038): 0.06 µg/mL (≈ 0.0631 µM)
- MIC S. pneumoniae mefA ([5]; Strain No. MP-627 UNT-039): 0.125 µg/mL (≈ 0.131 µM)
- MIC A. baumannii ATCC19606 ([7]; ATCC19606, Strain No. MP-15): 64 µg/mL (≈ 67.3 µM)
- MIC A. baumannii clinical ([7]; Strain No. MP576): >64 µg/mL
- MIC A. baumannii clinical ([7]; Strain No. MP577): 16 µg/mL (≈ 16.8 µM)
- MIC S. pyogenes ATCC19615 ([8]; ATCC19615, Strain No. MP-19): <0.03 µg/mL
- MIC S. pyogenes mac resistant ([8]; mac resistant, Strain No. MP-625 UNT-014): 0.5 µg/mL (≈ 0.526 µM)
- MIC K. pneumoniae ATCC10031 ([9]; ATCC10031, Strain No. MP-14): 4 µg/mL (≈ 4.21 µM)
- MIC K. pneumoniae clinical ([9]; Strain No. MP546): 64 µg/mL (≈ 67.3 µM)
- MIC K. pneumoniae clinical ([9]; Strain No. MP548): 32 µg/mL (≈ 33.6 µM)

SMILES: CCC1OC(=O)C(C)C(=O)C(C)C(OC2OC(C)CC(N(CCO)CCO)C2O)C(C)(OC)CC(C)CNC(C)C2N(CCCCn3cc(-c4cccc(N)c4)nn3)C(=O)OC12C (centres unmarked) [FSM-120379]
- MIC ([1]; S. aureus (MRSA) GISA USA600, strain MP-619 UNT-120 (Table N2)): >64 µg/mL
- MIC ([1]; S. aureus (MRSA) ST-228 cErm, strain MP-513 (Table N2)): >64 µg/mL
- MIC ([1]; S. aureus (MRSA) USA100, strain MP-618 UNT-096 (Table N2)): >64 µg/mL
- MIC ([1]; S. aureus (MRSA) USA300, strain MP-549 (Table N2)): >64 µg/mL
- MIC ([1]; S. aureus (MRSA) ermA phenotype, strain MP-620 UNT-146 (Table N2)): >64 µg/mL
- MIC ([1]; S. aureus ATCC29213, strain MP-12 (Table N2)): >64 µg/mL
- MIC ([1]; S. aureus ATCCBAA-977, strain MP-17 (Table N2)): >64 µg/mL
- MIC ([2]; E. coli ATCC25922, strain MP-4 (Table N2)): >64 µg/mL
- MIC ([2]; E. coli ATCC25922:tolC, strain MP-9 (Table N2)): 32 µg/mL (≈ 36 µM)
- MIC ([2]; E. coli clinical, strain MP541 (Table N2)): >64 µg/mL
- MIC ([2]; E. coli clinical-cErm, strain MP532 (Table N2)): >64 µg/mL
- MIC ([3]; E. faecalis ATCC29212, strain MP-24 (Table N2)): 32 µg/mL (≈ 36 µM)
- MIC ([3]; E. faecalis van resistant, strain UNT-039 (Table N2)): >64 µg/mL
- MIC ([4]; P. aeruginosa ATCC27853, strain MP-3 (Table N2)): >64 µg/mL
- MIC ([4]; P. aeruginosa PAO1, strain MP-7 (Table N2)): >64 µg/mL
- MIC ([4]; P. aeruginosa PAO1:mex, strain MP-8 (Table N2)): >64 µg/mL
- MIC ([5]; S. pneumoniae ATCC49619, strain MP-21 (Table N2)): 2 µg/mL (≈ 2.25 µM)
- MIC ([5]; S. pneumoniae mefA, strain MP-626 UNT-038 (Table N2)): 1 µg/mL (≈ 1.13 µM)
- MIC ([5]; S. pneumoniae mefA, strain MP-627 UNT-039 (Table N2)): 1 µg/mL (≈ 1.13 µM)
- MIC ([7]; A. baumannii ATCC19606, strain MP-15 (Table N2)): >64 µg/mL
- MIC ([7]; A. baumannii clinical, strain MP576 (Table N2)): >64 µg/mL
- MIC ([7]; A. baumannii clinical, strain MP577 (Table N2)): >64 µg/mL
- MIC ([8]; S. pyogenes ATCC19615, strain MP-19 (Table N2)): 4 µg/mL (≈ 4.5 µM)
- MIC ([8]; S. pyogenes mac resistant, strain MP-625 UNT-014 (Table N2)): 16 µg/mL (≈ 18 µM)
- MIC ([9]; K pneumomae ATCC10031, strain MP-14 (Table N2)): 32 µg/mL (≈ 36 µM)
- MIC ([9]; K. pneumoniae clinical, strain MP546 (Table N2)): >64 µg/mL
- MIC ([9]; K. pneumoniae clinical, strain MP548 (Table N2)): >64 µg/mL
